The values below are quoted from earlier work in patent publication US12100485B2, “Machine learning and molecular simulation based methods for enhancing binding and activity prediction” (The Board of Trustees of the Leland Stanford Junior …, priority 2018, dated 2024).

Where two headings read alike, the source gives them in different places.

This data set concerns μOR.
The mark [1] stands for this setting: known pharmacology, training dataset.

With `CN1CC[C@]23c4c5ccc(O)c4O[C@H]2C(=O)CC[C@@]3(O)[C@H]1C5` [oxymorphone], the Action result is given as “agonist”.
Consider `Cc1ccc(/C=C/C(=O)N[C@@]23CCC(=O)[C@@H]4Oc5c(O)ccc6c5[C@@]42CCN(CC2CC2)[C@@H]3C6)cc1` [methocinnamox], for which the Action result is recorded as “antagonist”.
On to endomorphin-2, for which the Action entry is on record as “agonist”.
In the case of `CN1CC[C@]23c4c5ccc(O)c4O[C@H]2CCC[C@H]3[C@H]1C5` [desomorphine], the Action entry is “agonist”.
Regarding `CCC(OC(C)=O)C(CC(C)NC)(c1ccccc1)c1ccccc1` (stereo not shown) [noracymethadol], the Action result is on record as “agonist”.
Regarding `N#CC(CCN1CCC(C(=O)O)(c2ccccc2)CC1)(c1ccccc1)c1ccccc1` [difenoxin], the Action result is on record as “agonist”.
With endomorphin, the Action result was “agonist”.
Consider `C[C@@H](NC(=O)[C@@H](N)Cc1ccc(O)cc1)C(=O)NCC(=O)N(C)[C@@H](Cc1ccccc1)C(=O)NCCO` [damgo], for which the Action entry is “agonist”.
`C=CCN1CC[C@]23c4c5ccc(O)c4O[C@H]2[C@@H](OCCOCCOCCOCCOCCOCCOCCOC)CC[C@@]3(O)[C@H]1C5` [naloxegol]: the Action result is “Antagonists”.
For the molecule `CCOC(=O)C(CCN1CCOCC1)(c1ccccc1)c1ccccc1` [dioxaphetyl_butyrate], the Action result was “agonist”.
As for `CN(C)[C@H](Cc1ccccc1)c1ccccc1` [lefetamine], the Action entry is recorded as “agonist”.
`C[C@H]1CN(C[C@H](Cc2ccccc2)C(=O)NCC(=O)O)CC[C@@]1(C)c1cccc(O)c1` [alvimopan]: under setting [1], the Action entry is “antagonist”.
As for `CCC(=O)O[C@]1(c2ccccc2)CCN(C)C[C@@H]1CC` [meprodine], the Action result is “agonist”.
On to `C[N@+]1(CC2CC2)CC[C@]23c4c5ccc(O)c4O[C@H]2C(=O)CC[C@@]3(O)[C@H]1C5` [methylnaltrexone], for which the Action entry under setting [1] was “antagonist”.
On to `COC(=O)/C=C/C(=O)N[C@@H]1CC[C@@]2(O)[C@H]3Cc4ccc(O)c5c4[C@@]2(CCN3CC2CC2)[C@H]1O5` [beta-funaltrexamine], for which the Action result was “antagonist”.
For the molecule `CCCCCN[C@@]12C=CC(=O)[C@@H]3Oc4c(O)ccc5c4[C@@]31CCN(C)[C@@H]2C5` [pentamorphone], the Action result is recorded as “agonist”.
Take `C[C@H]1CN(CC[C@H](O)C2CCCCC2)CC[C@@]1(C)c1cccc(O)c1` [ly-255582]: the Action result is given as “antagonist”.
With `CN(C)CC(C)(C)C(=O)c1ccccc1` [dimethylaminopivalophenone], the Action entry under setting [1] is “agonist”.
As to `CN(C)C(=O)C(CCN1CCC(O)(c2ccc(Cl)cc2)CC1)(c1ccccc1)c1ccccc1` [loperamide], the Action result is “agonist”.
For `C=C1CC[C@@]2(O)[C@H]3Cc4ccc(O)c5c4[C@@]2(CCN3CC2CC2)[C@H]1O5` [nalmefene], the Action entry under setting [1] is listed as “Antagonists”.
For the molecule `CCOC(=O)C1(c2ccccc2)CCCN(C)CC1` (stereo not shown) [ethoheptazine], the Action entry was “agonist”.
As for `CN1CC[C@]2(C)c3cc(O)ccc3C[C@H]1C2(C)CCC(=O)CCC1CCCC1` (stereo partly shown) [quadazocine], the Action entry is on record as “Antagonists”.
Consider `O=C(N[C@@H]1CC[C@@]2(O)[C@H]3Cc4ccc(O)c5c4[C@@]2(CCN3CC2CC2)[C@H]1O5)c1cccc(I)c1` [ibntxa], for which the Action result is “agonist”.
Turning to `CCOC(=O)C1(c2ccccc2)CCN(CCc2ccc(N)cc2)CC1` [anileridine], the Action entry is recorded as “agonist”.
Take `CCC(OC(C)=O)C(CC(C)N(C)C)(c1ccccc1)c1ccccc1` (stereo not shown) [acetylmethadol]: the Action entry is reported as “agonist”.
`CCOC(=O)C1(c2ccccc2)CCN(CCOCC2CCCO2)CC1` (stereo not shown) [furethidine]: the Action result is given as “agonist”.
Turning to `CCOC(=O)C1(c2ccccc2)CCN(CCN2CCOCC2)CC1` [morpheridine], the Action entry is recorded as “agonist”.
As to `CC[C@@H](O)C(C[C@@H](C)N(C)C)(c1ccccc1)c1ccccc1` [alphamethadol], the Action entry is on record as “agonist”.
Consider `CO[C@H]1C=C[C@H]2[C@H]3Cc4ccc(O)c5c4[C@@]2(CCN3C)[C@H]1O5` [heterocodeine], for which the Action result was “agonist”.
On to `CC(C)C[C@@H](NC(=O)[C@H](Cc1ccccc1)NC(=O)CNC(=O)[C@@H](C)NC(=O)[C@@H](N)Cc1ccc(O)cc1)C(=O)O` [dadle], for which the Action result is reported as “agonist”.
Turning to `CN1CC[C@]23c4c5ccc(O)c4O[C@H]2[C@@H](O[C@@H]2O[C@H](C(=O)O)[C@@H](O)[C@H](O)[C@H]2O)C=C[C@H]3[C@H]1C5` [morphine-6-glucuronide], the Action entry is reported as “agonist”.
With `CCC(=O)C(C[C@@H](C)N(C)C)(c1ccccc1)c1ccccc1` [levomethadone], the Action entry was “agonist”.
Regarding `COc1ccc2c3c1O[C@H]1[C@@H](O)CC[C@H]4[C@@H](C2)N(C)CC[C@@]341` [methyldihydromorphine], the Action result is “agonist”.
For `CN1CCC23CCCCC2C1Cc1ccc(O)cc13` (stereo not drawn) [racemorphan], the Action result is on record as “agonist”.
Turning to `CCOC(=O)C1(c2ccccc2)CCN(CCc2ccccc2)CC1` [pheneridine], the Action result is given as “agonist”.
As for `CCC(=O)O[C@](Cc1ccccc1)(c1ccccc1)[C@H](C)CN(C)C` [dextropropoxyphene], the Action entry is given as “agonist”.
Take `C=CCN1CC[C@]23c4c5ccc(O)c4O[C@H]2/C(=N/N=C2\CC[C@@]4(O)[C@H]6Cc7ccc(O)c8c7[C@@]4(CCN6CC=C)[C@H]2O8)CC[C@@]3(O)[C@H]1C5` [naloxonazine]: the Action result is recorded as “Antagonists”.
As to `COCCN1CC[C@]23c4c5ccc(O)c4O[C@H]2C(=O)CC[C@@]3(O)[C@H]1C5` [semorphone], the Action result is reported as “agonist”.
`O=C1CC[C@@]2(O)[C@H]3Cc4ccc(O)c5c4[C@@]2(CCN3CC2CC2)[C@H]1O5` [naltrexone]: the Action result under setting [1] is recorded as “Antagonists”.
As for `O=C(CN1CC[C@]23CCCC[C@H]2[C@H]1Cc1ccc(O)cc13)c1ccccc1` [levophenacylmorphan], the Action result was “agonist”.
For hemorphin-4, the Action entry was “agonist”.
On to `CN1CC[C@]23c4c5ccc(O)c4O[C@H]2[C@@H](O)C=C[C@H]3[C@H]1C5` [morphine], for which the Action entry is “agonist”.
On to `CC[C@@H]1CN2CC[C@]3(Nc4cccc(OC)c4C3=O)[C@@H]2C[C@@H]1/C(=C\OC)C(=O)OC` [mitragynine_pseudoindoxyl], for which the Action entry is on record as “agonist”.
As to `Oc1ccc2c3c1O[C@H]1[C@@H](O)C=C[C@H]4[C@@H](C2)N(CCc2ccccc2)CC[C@@]341` [n-phenethylnormorphine], the Action result was “agonist”.
Turning to `CN1CC[C@]23c4c5ccc(O)c4O[C@H]2/C(=N\N)CC[C@@]3(O)[C@H]1C5` [oxymorphazone], the Action entry is on record as “agonist”.
`CCC(=O)OC1(c2ccccc2)CC(C)N(C)CC1C` (stereo not shown) [trimeperidine]: the Action result is “agonist”.
Consider `CCOC(=O)C1(c2ccccc2)CCN(CCC(O)c2ccccc2)CC1` (stereo not shown) [phenoperidine], for which the Action result was “agonist”.
For the molecule `C[N@+]1(CC2CC2)CC[C@]23CC(=O)CC[C@@]2(O)[C@H]1Cc1ccc(C(N)=O)c(O)c13` [methylsamidorphan], the Action result is “antagonist”.
As for `CCC(=O)C1(c2cccc(O)c2)CCN(C)CC1` [ketobemidone], the Action entry is recorded as “agonist”.
In the case of `Oc1cccc([C@@]23CCCC[C@H]2CN(CC2CC2)CC3)c1` [ciprefadol], the Action entry is “agonist”.
For `CCC(=O)C(c1ccccc1)(c1ccccc1)C(C)CN(C)C` (stereo not shown) [isomethadone], the Action result was “agonist”.
With `CCOC(=O)C1(c2ccccc2)CCN(CC(O)c2ccccc2)CC1` (stereo not shown) [oxpheneridine], the Action result is recorded as “agonist”.
For `N/N=C1/CC[C@@]2(O)[C@H]3Cc4ccc(O)c5c4[C@@]2(CCN3CC2CC2)[C@H]1O5` [naltrexazone], the Action entry is given as “Antagonists”.
On to `C[C@H](CN1CCOCC1)C(C(=O)N1CCCC1)(c1ccccc1)c1ccccc1` [dextromoramide], for which the Action entry is “agonist”.
Turning to `CCOC(C(=O)OCCN(C)C)(c1ccccc1)c1ccccc1` [dimenoxadol], the Action result is given as “agonist”.
`C=CCN1CC[C@]23c4c5ccc(O)c4O[C@H]2/C(=N\N)CC[C@@]3(O)[C@H]1C5` [naloxazone]: the Action result is on record as “Antagonists”.
With `Oc1ccc2c3c1O[C@H]1[C@H](F)CC[C@@]4(O)[C@@H](C2)N(CC2CC2)CC[C@]314` [cyclofoxy], the Action result is on record as “antagonist”.
Consider `CN1CC[C@]23c4c5ccc(O)c4O[C@H]2[C@@H](O)CC[C@@]3(O)[C@H]1C5` [hydromorphinol], for which the Action entry was “agonist”.
Consider `CC[C@@H](OC(C)=O)C(C[C@@H](C)N(C)C)(c1ccccc1)c1ccccc1` [alphacetylmethadol], for which the Action entry was “agonist”.
With `CCOC(=O)C1(c2ccccc2)CCN(CCC(C#N)(c2ccccc2)c2ccccc2)CC1` [diphenoxylate], the Action result is listed as “agonist”.
For the molecule `CCC(=O)C(CC(C)N(C)C)(c1ccccc1)c1ccccc1` (stereo not shown) [methadone], the Action result is recorded as “agonist”.
Turning to `CCOC(=O)C1(c2ccccc2)CCN(CCOCc2ccccc2)CC1` [benzethidine], the Action result is recorded as “agonist”.
Turning to `COc1ccc(CN(C(=O)[C@@H](N)Cc2c(C)cc(C(N)=O)cc2C)[C@@H](C)c2ncc(-c3ccccc3)[nH]2)cc1C(=O)O` [eluxadoline], the Action result is reported as “agonist”.
Take `CC1C2Cc3ccc(O)cc3C1(C)CCN2CCc1ccccc1` (stereo not shown) [phenazocine]: the Action entry is listed as “agonist”.
In the case of `CCOC(=O)C1(c2ccccc2)CCN(CCCNc2ccccc2)CC1` [piminodine], the Action entry is given as “agonist”.
As for `CN1CC[C@]23CCCC[C@H]2[C@H]1Cc1ccc(O)cc13` [levorphanol], the Action result is “agonist”.
Take `CO[C@@]12CCC(=O)[C@@H]3Oc4c(O)ccc5c4[C@@]31CCN(C)[C@@H]2C5` [14-methoxydihydromorphinone]: the Action entry is given as “agonist”.
As for `CN1CC[C@]23c4c5ccc(O)c4O[C@H]2C(=O)C=C[C@H]3[C@H]1C5` [morphinone], the Action entry is listed as “agonist”.
Take `N#CC(CCN1CCC(C(N)=O)(N2CCCCC2)CC1)(c1ccccc1)c1ccccc1` [piritramide]: the Action result is “agonist”.
For `CCOC(=O)C1(c2ccccc2)CCN(CCOCCO)CC1` [etoxeridine], the Action result was “agonist”.
